The source of these data is patent US10532040B2, “Methods of treating cancer with herbacetin” (REGENTS OF THE UNIVERSITY OF MINNESOTA, priority 2011, dated 2020).

The assay concerns the target T1, ODC (Homo sapiens, UniProt P11926).
T1 sequence (P11926 1-461): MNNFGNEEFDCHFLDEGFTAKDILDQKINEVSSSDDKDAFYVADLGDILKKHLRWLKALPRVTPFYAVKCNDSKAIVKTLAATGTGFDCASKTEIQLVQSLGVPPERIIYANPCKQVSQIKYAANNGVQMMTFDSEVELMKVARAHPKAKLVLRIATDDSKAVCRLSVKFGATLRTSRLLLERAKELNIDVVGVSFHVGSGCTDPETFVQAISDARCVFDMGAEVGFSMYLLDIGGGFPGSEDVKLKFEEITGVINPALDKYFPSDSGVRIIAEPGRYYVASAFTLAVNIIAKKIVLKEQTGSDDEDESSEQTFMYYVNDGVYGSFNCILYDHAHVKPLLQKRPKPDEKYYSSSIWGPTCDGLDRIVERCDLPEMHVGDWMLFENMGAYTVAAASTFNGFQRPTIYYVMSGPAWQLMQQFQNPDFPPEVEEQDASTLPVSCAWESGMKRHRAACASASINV
As to the kind of experiment: ODC enzyme assay with recombinant ODC protein. Type of assay: biochemical. Particulars: in vitro. The protocol: FIGS. 5A-5E. The effect of herbacetin on ODC activity was assessed in (a) DLD-1 and (b) HCT116 colon cancer cells. Cell lysates were incubated for 15 min with reaction buffer and different doses of herbacetin or DFMO and then incubated at 37° C. for 1 h. Herbacetin (c) and kaempferol (d) were modeled as allosteric inhibitors with the ODC crystal structure. (e) The effect of herbacetin or kaempferol on ODC activity was assessed using a human ODC recombinant protein. Each reaction was incubated at 37° C. for 1 h and ODC activity was measured as the release of CO2 from L-[1-C^14] ornithine. Data are represented as means±S.D. of triplicate values. The asterisk (*) indicates a significant difference (p<0.05) between herbacetin-treated samples compared to untreated or kaempferol-treated samples.
ODC activity was measured as the release of CO2 from L-[1-C^14] ornithine as previously described ([…]).

As for `O=c1c(O)c(-c2ccc(O)cc2)oc2cc(O)cc(O)c12` [kaempferol, reference compound], the “ODC activity (release of CO2 from L-[1-C^14] ornithine)” value is “little effect”.
